{"source": "patent US8377883B2", "about": "“Peptide for anti-angiogenesis and use thereof” (Beijing Institute for Cancer Research, priority 2006, dated 2013)", "key": {"[1]": {"test_system": "human umbilical vein endothelial cells (HUVECs)", "test": "MTT proliferation of HUVECs", "type": "cell-based", "details": "25 μg/ml PBS, MTT at 24, 48, 72, 96 hours", "procedure": "In order to further investigate the effects of FpAT on the proliferation of various vascular endothelial cells, a cell proliferation suppression experiment was carried out using MTT method in this example.\nHuman umbilical cord samples (obtained from Beijing Obstetrics & Gynecology Hospital) was digested with 0.1% collagenase I (available from GIBCO BRL company), followed by a centrifugation (1000 rpm, 10 minutes) to collect human umbilical vein endothelial cells (HUVECs). After suspended in 20% FCS/RPMI1640, the cells were transferred into plastic bottles for culture in CO2 incubator (37° C., 5% CO2). Twelve hours later, unattached cells were discarded by changing medium, and then the remaining cells were cultured conventionally with the medium changed every 3 days. The cultured HUVECs were digested with 0.04% trypsin-EDTA, and inoculated into 96-well plate at 2×10^3 cells/well. After 24 hours of culture, the vehicle (PBS) and FpAT (25 μg/ml PBS) were added separately, with 4 parallel wells per group. […] After mixed well, OD value (measured at a wavelength of 570 nm) of each well was measured in a microplate reader, and the cell suppression rates were calculated according to the following formula: cell suppression rate=(mean OD value of blank control group-mean OD value of treated group)/mean OD value of blank control group×100%."}, "[2]": {"test_system": "pig aorta endothelial cells (PAEC)", "test": "MTT proliferation of pig aorta endothelial cells", "type": "cell-based", "details": "similar experiment to HUVEC MTT"}, "[3]": {"test_system": "chick chorioallantoic membrane vessel", "test": "Proliferation of chick chorioallantoic membrane vessel", "details": "10 μl of 1 μg/μL on glass fiber filter membrane, 24 hours", "procedure": "In this example an experiment of proliferation of chick chorioallantoic membrane vessel was carried out to test suppressing effects of FpAT on angiogenesis.\nThe test was performed according to the method described in the reference “Fu Shengfa, Lu yinglin, Zhang Chaoshan et al., A chick chorioallantoic membrane technique to test function of vascular growth factors, Bulletin of the Academy of Military Medical Sciences 1993, 17:294-97”. Fresh fertilized hen eggs were immersed into 0.1% benzalkonium bromide solution at 38° C. for 2 minutes, and then incubated in an incubator at 37.5° C. in a humidity of 60-70% for 3 days. Then the eggs with shell removed were transferred to plate and cultured. The samples were separated into groups and administered when the allantoic membrane grew to about 2 cm^2, 5 chicken embryos per group. 10 μl of FpAT (1 μg/μL), PBS (negative control) was dropped on a glass fiber filter membrane of Φ4 mm, which was placed at distal end of chorioallantoic membrane, and cultured for 24 hours. The results were observed and recorded by taking photos. The experiment was repeated twice."}, "[4]": {"test_system": "mouse liver cancer H22 cells", "test": "Tumor suppression in liver cancer H22 cells tumor-bearing mouse model (Example 4)", "type": "in vivo, mice of Kunming strain", "details": "50 m/1000 PBS/injection, angulus oculi medialis vein daily, 7 times; vs PBS control, P<0.05", "procedure": "To confirm the biological effects of FpAT on the growth of mice deriving tumor in mice in vivo, a tumor suppression experiment was carried out in this example using liver cancer H22 cells tumor-bearing mouse model of mice of Kunming strain and osteosarcoma S180 cells tumor-bearing mouse model of mice of Kunming strain. Forty 5-week old mice of Kunming strain purchased from Animal Center Of Chinese Academy Of Medical Sciences were inoculated subcutaneously in forelimb with mouse liver cancer H22 cells (National Institute for the Control of Pharmaceutical and Biological Products) (5×10^6/100 μl/mouse) or osteosarcoma S180 cells (National Institute for the Control of Pharmaceutical and Biological Products) (5×10^6/100 μl/mouse). On the next day after inoculation, each kind of inoculated cells were divided into 2 groups randomly with 10 mice per group. FpAT ([…]) or vehicle (the solvent for peptide) control (PBS:100 μl/injection) were injected in angulus oculi medialis vein daily, 7 times in total. The mice were sacrificed by dislocating the neck on the next day after administration was stopped, and the tumors were taken and weighed for a statistical analysis."}, "[5]": {"test_system": "human umbilical vein endothelial cells (HUVECs)", "test": "Microfilament skeleton of HUVECs by confocal microscope", "type": "cell-based", "details": "10, 25, 100 μg/ml; 48, 72, 96 hours", "procedure": "Human umbilical cord samples (obtained from Beijing Obstetrics & Gynecology Hospital) was digested with 0.1% collagenase I (available from GIBCO BRL company), followed by a centrifugation (1000 rpm, 10 minutes) to collect human umbilical vein endothelial cells (HUVECs). After suspended in 20% FCS/RPMI1640, the cells were transferred into plastic bottles for culture in CO2 incubator (37° C., 5% CO2). Twelve hours later, unattached cells were discarded by changing medium, and then the remaining cells were cultured conventionally with the medium changed every 3 days. The cultured HUVECs were digested with 0.04% trypsin-EDTA, and inoculated into 24-well plate at 2×10^4 cells/well; and the vehicle (PBS) and FpAT (10 μg/ml, 25 μg/ml, 100 μg/ml) were added separately, with 3 parallel wells per group. […] After washing twice with PBS, Hoechst was added to stain nucleus. After washed once with PBS, the slide was mounted with mounting solution, and stored at 4° C. in the dark. The change of cytoskeleton was observed employing a confocal microscope."}, "[6]": {"test_system": "D2F2 cells (Balb/c mouse-derived breast carcinoma cell)", "test": "MTT proliferation of D2F2 cells", "type": "cell-based", "details": "25 μg/ml PBS, ninety six hours", "procedure": "To investigate direct effects of FpAT on tumor cells in vitro, the influence of FpAT on the proliferation of D2F2 cell (Balb/c mouse-derived breast carcinoma cell) was examined using MTT in this example.\nD2F2 cells (Mahoney K H, Miller B E, Heppner G H. FACS quantitation of leucine aminopeptidase and acid phosphatase on tumor-associated macrophages from metastatic and nonmetastatic mouse mammary tumors. J Leukoc Biol. 1985 November; 38(5): 573-85.) were cultured conventionally. The cultured D2F2 cells were digested with 0.04% trypsin-EDTA, and inoculated into 96-well plate at 3×10^3 cells/well; after 24 hours of culture, PBS and FpAT (25 μg/ml PBS) were added separately, with 4 parallel wells per group. Ninety six hours later, 20 μl MTT solution of mass concentration of 5 mg/ml was added to each well. After the culture was performed continuously for 4 hours, the original culture medium was discarded and 200 μl DMSO was added to each well, and then it was shaken for 15 minutes. After mixed well, OD value (measured at a wavelength of 570 nm) of each well was measured in a microplate reader, and the cell suppression rates were calculated according to the following formula: cell suppression rate=(mean OD value of blank control group−mean OD value of treated group)/mean OD value of blank control group×100%."}}, "data": [{"substance": "H2N-Asp-Ser-Gly-Glu-Gly-Asp-Phe-Leu-Ala-Glu-Gly-Gly-Gly-Val-Arg-COOH (H-DSGEGDFLAEGGGVR-OH; listed as Homo sapiens) [FpAT, fibrinopeptide A truncated, carboxyl terminal 15 amino acids of fibrinopeptide A]", "values": [{"measurement": "suppressing rate of HUVEC proliferation", "setting": "[1]", "value": 40.1, "unit": "%"}, {"measurement": "suppression of PAEC proliferation", "setting": "[2]", "value": "came to a same conclusion"}, {"measurement": "blood vessel distribution and original blood vessel", "setting": "[3]", "value": "inducing disorder of blood vessel distribution and atrophy of original blood vessel"}, {"measurement": "blood vessel formation", "setting": "[3]", "value": "suppressing remarkably blood vessel formation"}, {"measurement": "growth of mouse liver cancer H22 cells in vivo (tumor mass)", "setting": "[4]", "value": "could suppressed the growths"}, {"measurement": "microfilament disassembly in HUVECs", "setting": "[5]", "value": "can induce the microfilament disassembly"}, {"measurement": "suppression of D2F2 cell proliferation", "setting": "[6]", "value": "can not suppress D2F2 cells in vitro"}]}]}
